Our source for the IC50 values is patent publication US8853207B2 (Development Center for Biotechnology, priority 2012, dated 2014).

Where a name gives a salt, the structure may show the parent alone. A value given as a limit tells only on which side of the number the result lay.

C-kit kinase (recombinant N-terminal 6×His-tagged C-kit kinase domain), sequence (P10721 589-937): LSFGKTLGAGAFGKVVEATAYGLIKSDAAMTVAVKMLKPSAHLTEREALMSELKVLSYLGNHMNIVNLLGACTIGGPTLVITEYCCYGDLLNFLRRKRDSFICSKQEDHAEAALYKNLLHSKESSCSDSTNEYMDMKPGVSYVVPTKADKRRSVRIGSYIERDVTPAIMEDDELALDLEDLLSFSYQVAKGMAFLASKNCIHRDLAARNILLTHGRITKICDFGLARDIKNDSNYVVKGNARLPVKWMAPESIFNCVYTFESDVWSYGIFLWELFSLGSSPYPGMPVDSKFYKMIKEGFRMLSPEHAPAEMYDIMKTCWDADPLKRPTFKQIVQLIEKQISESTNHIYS
PDGFR-β kinase (recombinant N-terminal 6×His-tagged PDGFR-β kinase domain), sequence (P09619 600-962): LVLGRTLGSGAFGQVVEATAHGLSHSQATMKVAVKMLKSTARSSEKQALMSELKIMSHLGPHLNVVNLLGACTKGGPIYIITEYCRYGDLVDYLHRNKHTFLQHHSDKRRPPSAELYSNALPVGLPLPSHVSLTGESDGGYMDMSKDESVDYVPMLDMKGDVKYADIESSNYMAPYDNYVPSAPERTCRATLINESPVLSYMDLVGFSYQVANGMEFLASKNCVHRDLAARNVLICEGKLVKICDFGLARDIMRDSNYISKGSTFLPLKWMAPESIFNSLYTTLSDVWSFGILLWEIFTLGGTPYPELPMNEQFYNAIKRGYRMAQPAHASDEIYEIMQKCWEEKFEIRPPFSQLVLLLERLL

One assay has as its target PDGFR-β kinase (recombinant N-terminal 6×His-tagged PDGFR-β kinase domain) (Homo sapiens (Human), UniProt P09619). Put plainly: PDGFR-β kinase assay ([33P] incorporation into substrate). The format is biochemical. The conditions noted are these: 30 nM ATP, 30° C., 30 minutes; read-out: IC50 (nM) PDGFRβ. The protocol:
(§1) Inhibition of PDGFR-β kinase activity by compounds disclosed herein was quantified by measuring the amount of [^33P] incorporated into the substrate in the presence of a test compound. Briefly, a reaction mixture of 25 μL final volume containing 55 ng of PDGFR-β kinase (obtained by purifying recombinant N-terminal 6×His-tagged PDGFR-β kinase domain construct expressed by baculovirus), 2.5 μg of the substrate [Poly (Glu-Tyr, 4:1), Sigma], kinase reaction buffer (20 mM MOPS pH 7.0, 1 mM EDTA, 5% glycerol, 0.01% Brij-35, 0.1% β-mercaptoethanol, 1 mg/mL BSA, 2 mM MnCl2, 30 nM ATP, 0.1 μCi per well [^33P]-γ-ATP (2,500-3,000 Ci/mmol)), and a test compound (diluted from 9 μM to the desired final concentration by 4% DMSO) or DMSO (as the control) was incubated at 30° C. for 30 minutes. The reaction was stopped by adding 5 μL of 3% phosphoric acid solution. The resultant solution (30 μL) was later harvested by a UniFilter Plate GF/B (PerkinElmer) followed by adding 30 μL of the scintillation cocktail (MicroScint 20, PerkinElmer) to the well. The radioactivity retained on the filter membrane was measured by a luminescence counter (PerkinElmer). The results were analyzed by using linear regression software (GraphPad Prism 4; GraphPad Software Inc.).
The term IC50 denotes the concentration that gives 50% inhibition. Regarding `COc1ccc(-c2n[nH]c3c2Cc2sc(-c4ccc(NC(=O)CN5CCCC5)nc4)cc2-3)cc1` [Example-82, N-{5-[6-(4-Methoxy-phenyl)-4,7-dihydro-1-thia-4,5-diaza-cyclopenta[a]pentalen-2-yl]-pyridin-2-yl}-2-pyrrolidin-1-yl-acetamide], the IC50 worked out at 176 nM. In the case of `Nc1ccc(-c2n[nH]c3c2Cc2sccc2-3)cc1` [Example-2, 4-(4,7-Dihydro-1-thia-4,5-diaza-cyclopenta[a]pentalen-6-yl)-phenylamine hydrochloride], the IC50 was found to be 859 nM.

Another assay has as its target C-kit kinase (recombinant N-terminal 6×His-tagged C-kit kinase domain) (Homo sapiens (Human), UniProt P10721). As to the kind of experiment: C-kit kinase assay ([33P] incorporation into substrate). It is filed as biochemical. To be noted: 100 μM ATP, 30° C., 30 minutes. The protocol: Inhibition of C-kit kinase activity by compounds disclosed herein was quantified by measuring the amount of [^33P] incorporated into the substrate in the presence of a test compound. Briefly, a reaction mixture of 25 μL final volume containing 5 ng of C-kit kinase (obtained by purifying recombinant N-terminal 6×His-tagged C-kit kinase domain construct expressed from baculovirus), 5 μg of the substrate [Poly (Glu-Tyr, […], Sigma], kinase reaction buffer (8 mM MOPS/NaOH pH7.0, 0.2 mM EDTA, 10 mM MnCl2, 0.5% glycerol, 0.001% Brij-35, 0.01%, 2-mercaptoethanol, 0.1 mg/ml BSA, 100 μM ATP, 0.1 μCi per well [^33P]-γ-ATP (2,500-3,000 Ci/mmol)), and a test compound (diluted from 9 μM to the desired final concentration by 4% DMSO) or DMSO (as the control) was incubated at 30° C. for 30 minutes. The reaction was stopped by adding 5 μL of 3% phosphoric acid solution. The resultant solution (30 μL) was later harvested by a UniFilter Plate GF/B (PerkinElmer) followed by adding 30 μL of the scintillation cocktail (MicroScint 20, PerkinElmer) to the well. The radioactivity retained on the filter membrane was measured by a luminescence counter (PerkinElmer). The results were analyzed by using linear regression software (GraphPad Prism 4; GraphPad Software Inc.).
As to `COc1ccc(-c2n[nH]c3c2Cc2sc(-c4ccc(NC(=O)CN5CCCC5)nc4)cc2-3)cc1` [Example-82, N-{5-[6-(4-Methoxy-phenyl)-4,7-dihydro-1-thia-4,5-diaza-cyclopenta[a]pentalen-2-yl]-pyridin-2-yl}-2-pyrrolidin-1-yl-acetamide], the IC50 was 12.2 nM.

Regarding `Nc1ccc(-c2n[nH]c3c2Cc2sccc2-3)cc1` [Example-2, 4-(4,7-Dihydro-1-thia-4,5-diaza-cyclopenta[a]pentalen-6-yl)-phenylamine hydrochloride], the IC50 stood at 201 nM.

In another assay the target is FLT3 kinase (FLT3 kinase domain alone, Upstate) (Homo sapiens (Human), UniProt P36888). As to the kind of experiment: FLT3 kinase assay ([33P] incorporation into substrate). To be noted: 100 μM ATP, 30° C., 30 minutes; read-out: IC50 against FLT3. It is filed as biochemical. The procedure: as §1, with “FLT3” for “PDGFR-β”, “5” for “55”, “(FLT3” for “(obtained by purifying recombinant N-terminal 6×His-tagged PDGFR-β”, “alone, Upstate), 5” for “construct expressed by baculovirus), 2.5”, “[(Poly” for “[Poly”, “100 μM” for “2 mM MnCl2, 30 nM”
FLT3 kinase (FLT3 kinase domain alone, Upstate), sequence (P36888 610-943): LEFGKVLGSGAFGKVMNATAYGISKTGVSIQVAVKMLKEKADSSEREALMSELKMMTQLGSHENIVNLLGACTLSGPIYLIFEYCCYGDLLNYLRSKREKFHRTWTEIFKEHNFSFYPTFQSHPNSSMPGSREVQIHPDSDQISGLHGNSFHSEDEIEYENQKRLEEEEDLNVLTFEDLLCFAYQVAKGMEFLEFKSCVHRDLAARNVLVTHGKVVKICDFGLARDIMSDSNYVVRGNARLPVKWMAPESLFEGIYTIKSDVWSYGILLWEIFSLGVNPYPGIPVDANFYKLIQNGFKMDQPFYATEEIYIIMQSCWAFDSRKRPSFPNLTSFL
Take `COc1ccc(-c2n[nH]c3c2Cc2sc(-c4ccc(NC(=O)CN5CCCC5)nc4)cc2-3)cc1` [Example-82, N-{5-[6-(4-Methoxy-phenyl)-4,7-dihydro-1-thia-4,5-diaza-cyclopenta[a]pentalen-2-yl]-pyridin-2-yl}-2-pyrrolidin-1-yl-acetamide]: the IC50 was under 100 nM. As for `Nc1ccc(-c2n[nH]c3c2Cc2sccc2-3)cc1` [Example-2, 4-(4,7-Dihydro-1-thia-4,5-diaza-cyclopenta[a]pentalen-6-yl)-phenylamine hydrochloride], the IC50 is under 100 nM. With `FC(F)(F)Oc1ccc(Nc2n[nH]c3c2Cc2sccc2-3)cc1` [Example-46, (4,7-Dihydro-1-thia-4,5-diaza-cyclopenta[a]pentalen-6-yl)-(4-trifluoromethoxy-phenyl)-amine], the IC50 is 500 to 1000 nM. On the same count and under the same terms, under `c1ccc(-c2n[nH]c3c2Cc2sccc2-3)nc1` [Example-58, 6-Pyridin-2-yl-4,7-dihydro-1-thia-4,5-diaza-cyclopenta[a]pentalene] stands 100 to 499 nM; under `Brc1ccc(-c2n[nH]c3c2Cc2sc(Br)cc2-3)cn1` [Example-67, 2-Bromo-6-(6-bromo-pyridin-3-yl)-4,7-dihydro-1-thia-4,5-diaza-cyclopenta[a]pentalene], 100 to 499 nM. Take `Nc1ccc(Nc2ccc(-c3n[nH]c4c3Cc3sccc3-4)cc2)cc1` [Example-13, N-[4-(4,7-Dihydro-1-thia-4,5-diaza-cyclopenta[a]pentalen-6-yl)-phenyl]-benzene-1,4-diamine]: the IC50 fell in the range of 100 to 499 nM. As for `COc1ccc(-c2n[nH]c3c2Cc2sc(-c4cncc(N)c4)cc2-3)cc1` [Example-91, 5-[6-(4-Methoxy-phenyl)-4,7-dihydro-1-thia-4,5-diaza-cyclopenta[a]pentalen-2-yl]-pyridin-3-ylamine hydrochloride], the IC50 was under 100 nM. As to `Brc1ccc(-c2[nH]nc3c2Cc2sccc2-3)cc1` [Example-1, 6-(4-Bromo-phenyl)-5,7-dihydro-1-thia-4,5-diaza-cyclopenta[a]-pentalene], the IC50 is under 100 nM. With `Brc1ccc(-c2n[nH]c3c2Cc2sccc2-3)cn1` [Example-64, 6-(6-Bromo-pyridin-3-yl)-4,7-dihydro-1-thia-4,5-diaza-cyclopenta[a]pentalene], the IC50 fell in the range of 100 to 499 nM. Turning to `Fc1cccc(Nc2n[nH]c3c2Cc2sccc2-3)c1` [Example-30, (4,7-Dihydro-1-thia-4,5-diaza-cyclopenta[a]pentalen-6-yl)-(3-fluoro-phenyl)-amine], the IC50 was 100 to 499 nM.

Turning to `Clc1ccccc1Nc1n[nH]c2c1Cc1sccc1-2` [Example-31, (2-Chloro-phenyl)-(4,7-dihydro-1-thia-4,5-diaza-cyclopenta[a]pentalen-6-yl)-amine], the IC50 lay within 100 to 499 nM. Same read-out and setting: the result for `c1cc(-c2n[nH]c3c2Cc2sccc2-3)co1` [Example-17, 6-Furan-3-yl-4,7-dihydro-1-thia-4,5-diaza-cyclopenta[a]pentalene] reads 500 to 1000 nM.

For the molecule `COc1ccc(-c2n[nH]c3c2Cc2sc(-c4ccc(F)c(F)c4)cc2-3)cc1` [Example-72, 2-(3,4-Difluoro-phenyl)-6-(4-methoxy-phenyl)-4,7-dihydro-1-thia-4,5-diaza-cyclopenta[a]pentalene], the IC50 was under 100 nM. As to `Clc1cc(Cl)cc(-c2ccc(-c3n[nH]c4c3Cc3sccc3-4)cc2)c1` [Example-18, 6-(3′,5′-Dichloro-biphenyl-4-yl)-4,7-dihydro-1-thia-4,5-diaza-cyclopenta[a]pentalene], the IC50 lay in the range of 100 to 499 nM. As to `COc1cccc(Nc2n[nH]c3c2Cc2sccc2-3)c1` [Example-26, (4,7-Dihydro-1-thia-4,5-diaza-cyclopenta[a]pentalen-6-yl)-(3-methoxy-phenyl)-amine], the IC50 is under 100 nM. Take `COc1ccc(-c2n[nH]c3c2C(=O)c2sc(-c4ccc(N)nc4)cc2-3)cc1` [Example-87, 2-(6-Amino-pyridin-3-yl)-6-(4-methoxy-phenyl)-4H-1-thia-4,5-diaza-cyclopenta[a]pentalen-7-one]: the IC50 is under 100 nM. For `COc1cc(-c2ccc(-c3n[nH]c4c3Cc3sccc3-4)cc2)ccc1O` [Example-9, 4′-(4,7-Dihydro-1-thia-4,5-diaza-cyclopenta[a]pentalen-6-yl)-3-methoxy-biphenyl-4-ol], the IC50 was under 100 nM.

For `COc1ccc(-c2n[nH]c3c2Cc2sc(-c4ccoc4)cc2-3)cc1` [Example-77, 2-Furan-3-yl-6-(4-methoxy-phenyl)-4,7-dihydro-1-thia-4,5-diaza-cyclopenta[a]pentalene], the IC50 is under 100 nM.

`COc1ccc(-c2n[nH]c3c2Cc2sc(-c4ccc(OC)c(OC)c4)cc2-3)cc1` [Example-74, 2-(3,4-Dimethoxy-phenyl)-6-(4-methoxy-phenyl)-4,7-dihydro-1-thia-4,5-diaza-cyclopenta[a]pentalene]: the IC50 is under 100 nM. The same measure, in the same setting: under `CN1CCN(c2ccc(-c3n[nH]c4c3Cc3sccc3-4)cc2)CC1` [Example-80, 6-[4-(4-Methyl-piperazin-1-yl)-phenyl]-4,7-dihydro-1-thia-4,5-diaza-cyclopenta[a]pentalene] stands under 100 nM; under `O=S(=O)(c1ccc(Nc2n[nH]c3c2Cc2sccc2-3)cc1)N1CCCCC1` [Example-55, (4,7-Dihydro-1-thia-4,5-diaza-cyclopenta[a]pentalen-6-yl)-[4-(piperidine-1-sulfonyl)-phenyl]-amine], 100 to 499 nM. For `Clc1cccc(-c2n[nH]c3c2Cc2sccc2-3)c1` [Example-39, 6-(3-Chloro-phenyl)-4,7-dihydro-1-thia-4,5-diaza-cyclopenta[a]pentalene], the IC50 is under 100 nM. Turning to `COc1cccc(-c2n[nH]c3c2Cc2sccc2-3)c1` [Example-3, 6-(3-Methoxy-phenyl)-4,7-dihydro-1-thia-4,5-diaza-cyclopenta[a]pentalene], the IC50 lay within 100 to 499 nM. For the molecule `Fc1ccc(Nc2ccc(-c3n[nH]c4c3Cc3sccc3-4)cc2)cc1` [Example-7, [4-(4,7-Dihydro-1-thia-4,5-diaza-cyclopenta[a]pentalen-6-yl)-phenyl]-(4-fluoro-phenyl)-amine], the IC50 was 100 to 499 nM. As to `Fc1ccc(-c2n[nH]c3c2Cc2sccc2-3)cc1` [Example-40, 6-(4-Fluoro-phenyl)-4,7-dihydro-1-thia-4,5-diaza-cyclopenta[a]pentalene], the IC50 fell in the range of 100 to 499 nM. Take `Fc1cccc(Nc2ccc(-c3n[nH]c4c3Cc3sccc3-4)cc2)c1` [Example-37, [4-(4,7-Dihydro-1-thia-4,5-diaza-cyclopenta[a]pentalen-6-yl)-phenyl]-(3-fluoro-phenyl)-amine]: the IC50 was under 100 nM. `COc1ccccc1Nc1n[nH]c2c1Cc1sccc1-2` [Example-45, (4,7-Dihydro-1-thia-4,5-diaza-cyclopenta[a]pentalen-6-yl)-(2-methoxy-phenyl)-amine]: the IC50 fell in the range of 100 to 499 nM.
